biological target: T1, CynT2 (Escherichia coli, UniProt P61517); assay: stopped-flow CO2 hydration assay; assay type: biochemical; settings: CO2 substrate 1.7-17 mM, pH 8.3, 20 mM Tris, 20 mM NaClO4, 15 min preincubation; read-out: KI (mM) ^1 / CynT2
T1 construct: gene can; full-length synthetic gene, 220 residues, no signal peptide, N-terminal His6 fusion (pET100D-Topo), expressed in E. coli BL21(DE3) codon plus, about 29 kDa subunit, tag removal not mentioned
T1 sequence (P61517 whole entry, the tested form may be a part): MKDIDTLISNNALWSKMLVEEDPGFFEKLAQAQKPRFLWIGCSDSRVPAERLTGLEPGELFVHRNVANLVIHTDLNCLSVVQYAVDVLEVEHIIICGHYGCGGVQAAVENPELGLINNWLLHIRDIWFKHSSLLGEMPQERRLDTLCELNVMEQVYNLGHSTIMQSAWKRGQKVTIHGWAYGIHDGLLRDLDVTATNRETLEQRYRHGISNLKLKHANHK

SMILES	Ki [mM]
F[P-](F)(F)(F)(F)F [PF6^−]	> 10
OB1OB2OB(O)OB(O1)O2 [B4O7^2−]	0.25

same assay, conditions: read-out: KI (mM) ^1 / CynT2

SMILES	Ki [mM]
O=S(O)O [HSO3^−]	3.7
[O]=[V]([OH])([OH])[O][V](=[O])([OH])[OH] [V2O7^2−]	> 10
[O]=[Ru](=[O])(=[O])[OH] [RuO4^−]	9.5
S=C(S)S [CS3^2−]	3.1
[O-][Cl+3]([O-])([O-])O [ClO4^−]	> 100
F [F^−]	9.4
NS(N)(=O)=O [NH2SO2NH2]	0.011
N#C[SeH] [SeCN^−]	3.1
O=[Se](=O)(O)O [SeO4^2−]	3.1
O=S(=O)(O)C(F)(F)F [CF3SO3^−]	> 10
N#CS [SCN^−]	5.7
N#CO [CNO^−]	0.58
O=S(=O)(O)NS(=O)(=O)O [NH(SO3)2^2−]	1.5
OB(O)c1ccccc1 [PhB(OH)2]	0.0028
Cl [Cl^−]	6.7
Br [Br^−]	3.8
CCN(CC)C(=S)S [EtNCS2^−]	0.084
O=[Te](=O)(O)O [TeO4^2−]	0.51
O=S(=O)(O)OOS(=O)(=O)O [S2O8^2−]	6.4
[O]=[Re](=[O])(=[O])[OH] [ReO4^−]	> 10
O=S(=O)(O)F [FSO3^−]	0.83
O=P(O)(O)OP(=O)(O)O [P2O7^2−]	> 10
I [I^−]	> 10
O=NO [NO2^−]	4.9
O=[N+]([O-])O [NO3^−]	2.4
NS(=O)(=O)O [NH2SO3H]	0.0025
S [HS^−]	2.7
O=S(=O)(O)O [SO4^2−]	1.7

— publication PMC7321114, “Anion Inhibition Studies of the Beta-Carbonic Anhydrase from Escherichia coli” (Molecules, 2020)
